In patent US9695155B2, “Herbicidal substituted pyrimidinyloxy benzene compounds” (E. I. DU PONT DE NEMOURS AND COMPANY, priority 2013, dated 2017):

What was measured:
pigweed = test: Test A preemergence; type: in vivo, Amaranthus retroflexus
Summary of the method: (§1)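 Greenhouse pot test, loam/sand soil. Formulation: non-phytotoxic solvent mix plus surfactant. Pre: directed spray onto soil after sowing. Post: plants at 1–2 leaf, 2–10 cm. Rated visually vs untreated controls at ~10 d, 0 (no effect) to 100 (complete control).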

corn [1] = test: Test A preemergence; type: in vivo, Zea mays
Summary of the method: as §1

large (Lg) crabgrass = test: Test A postemergence; type: in vivo, Digitaria sanguinalis
Summary of the method: as §1

giant foxtail = test: Test A postemergence; type: in vivo, Setaria faberii
Summary of the method: as §1

wheat = test: Test A postemergence; type: in vivo, Triticum aestivum
Summary of the method: as §1

Heteranthera limosa = test: Test B flooded paddy test; type: in vivo; details: Flood, 250 g ai/ha, 0 to 100 scale where 0 is no effect and 100 is complete control
Summary of the method: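 Flooded to 3 cm at the 2-leaf stage, pots received compound through the paddy water and were kept at that depth under greenhouse conditions. After 13–15 days, effect was rated by eye relative to controls, 0 = none and 100 = complete control.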

wheat, winter = test: Test C preemergence; type: in vivo, Triticum aestivum
Summary of the method: (§2)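 Whole-plant greenhouse test with surfactant-containing solvent formulation, applied preemergence to sown loam–sand pots or postemergence to 2–18 cm plants. Scored by eye 13 to 15 days on, 0–100 scale.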

galium = test: Test C preemergence; type: in vivo, Galium aparine
Summary of the method: as §2

johnsongrass = test: Test C preemergence; type: in vivo, Sorghum halepense
Summary of the method: as §2

waterhemp = test: Test C preemergence; type: in vivo, Amaranthus rudis
Summary of the method: as §2

Italian ryegrass = test: Test C postemergence; type: in vivo, Lolium multiflorum
Summary of the method: as §2

corn [2] = test: Test C postemergence; type: in vivo, Zea mays
Summary of the method: as §2

[3] = 500 g ai/ha, 0 to 100 scale where 0 is no effect and 100 is complete control
[4] = 125 g ai/ha, 0 to 100 scale where 0 is no effect and 100 is complete control
[5] = 16 g ai/ha, preemergence, scale 0 to 100 (0 no effect, 100 complete control)
[6] = 125 g ai/ha, preemergence, scale 0 (no effect) to 100 (complete control)
[7] = Preemergence, 62 g ai/ha, scale 0 to 100, 0 no effect, 100 complete control
[8] = 16 g ai/ha, postemergence, 0 is no effect, 100 is complete control
[9] = 31 g ai/ha, postemergence, visual rating, scale 0 to 100 (0 no effect, 100 complete control), 13 to 15 days
[10] = 125 g ai/ha, postemergence, visual rating, scale 0 to 100 (0 no effect, 100 complete control)
[11] = Postemergence, 62 g ai/ha, scale 0 to 100 (0 no effect, 100 complete control)

Which results are given for `N#Cc1cccc(Oc2ncc(Cl)cn2)c1-n1cc(Br)cn1` [Compound 52, 2-(4-bromo-1H-pyrazol-1-yl)-3-[(5-chloro-2-pyrimidinyl)oxy]benzonitrile]?
pest or weed control at 125 g/ha (pigweed; Amaranthus retroflexus, pre-emergence, 125 g ai/ha, 0 to 100 scale where 0 is no effect and 100 is complete control, read-out: Plant response rating, Pigweed): 100%; pest or weed control at 500 g/ha (pigweed; Amaranthus retroflexus, pre-emergence, 240 h, 500 g ai/ha, 0 to 100 scale, 0 no effect, 100 complete control, approx. 10 days, read-out: Pigweed plant response rating): 100%; Corn plant response rating (crop injury, 0 = no effect, 100 = complete kill) at 125 g/ha (corn [1]; Zea mays, pre-emergence, 240 h, 125 g ai/ha, 0 to 100 scale where 0 is no effect and 100 is complete control): 20%; plant injury at 500 g/ha (corn [1]; Zea mays, pre-emergence, 240 h, 500 g ai/ha, 0 to 100 scale, 0 no effect, 100 complete control, approx. 10 days, read-out: Corn plant response rating): 80%; pest or weed control at 125 g/ha (large (Lg) crabgrass; Digitaria sanguinalis, post-emergence, 240 h, 125 g ai/ha, 0 to 100 scale where 0 is no effect and 100 is complete control, read-out: Plant response rating, Crabgrass, Large): 90%; pest or weed control at 500 g/ha (large (Lg) crabgrass; Digitaria sanguinalis, post-emergence, 240 h, 500 g ai/ha, 0 to 100 scale, 0 no effect, 100 complete control, read-out: Plant response rating Crabgrass, Large): 100%; pest or weed control at 125 g/ha (giant foxtail; Setaria faberi, post-emergence, 240 h, 125 g ai/ha, 0 to 100 scale where 0 is no effect and 100 is complete control, read-out: Plant response rating, Foxtail, Giant): 90%; pest or weed control at 500 g/ha (giant foxtail; Setaria faberi, post-emergence, 240 h, 500 g ai/ha, 0 to 100 scale, 0 no effect, 100 complete control, read-out: Plant response rating Foxtail, Giant): 100%; plant injury at 125 g/ha (wheat; Triticum aestivum, post-emergence, 240 h, 125 g ai/ha, 0 to 100 scale where 0 is no effect and 100 is complete control, read-out: Plant response rating, Wheat): 40%; plant injury at 500 g/ha (wheat; Triticum aestivum, post-emergence, 240 h, 500 g ai/ha, 0 to 100 scale, 0 no effect, 100 complete control, read-out: Plant response rating Wheat): 100%; pest or weed control at 250 g/ha (Heteranthera limosa; Heteranthera limosa, read-out: Plant response rating, Ducksalad): 70%; plant injury at 62 g/ha (wheat, winter; Triticum aestivum, pre-emergence, 62 g ai/ha, preemergence, scale 0 (no effect) to 100 (complete control), read-out: Wheat plant response rating): 0%; plant injury at 125 g/ha (wheat, winter; Triticum aestivum, pre-emergence, 125 g ai/ha, preemergence, scale 0 (no effect) to 100 (complete control), read-out: Wheat plant response rating): 30%; plant injury at 250 g/ha (wheat, winter; Triticum aestivum, pre-emergence, 250 g ai/ha, preemergence, scale 0 (no effect) to 100 (complete control), read-out: Wheat plant response rating): 45%; plant injury at 31 g/ha (wheat, winter; Triticum aestivum, pre-emergence, Preemergence, 31 g ai/ha, scale 0 to 100, 0 no effect, 100 complete control, read-out: Plant response rating, Wheat): 0%; pest or weed control at 62 g/ha (galium; Galium, pre-emergence, 62 g ai/ha, preemergence, scale 0 (no effect) to 100 (complete control), read-out: Galium plant response rating): 100%; pest or weed control at 125 g/ha (galium; Galium, pre-emergence, 125 g ai/ha, preemergence, scale 0 (no effect) to 100 (complete control), read-out: Galium plant response rating): 100%; pest or weed control at 250 g/ha (galium; Galium, pre-emergence, 250 g ai/ha, preemergence, scale 0 (no effect) to 100 (complete control), read-out: Galium plant response rating): 100%; pest or weed control at 31 g/ha (galium; Galium, pre-emergence, Preemergence, 31 g ai/ha, scale 0 to 100, 0 no effect, 100 complete control, read-out: Plant response rating, Galium): 100%; pest or weed control at 62 g/ha (johnsongrass; Sorghum halepense, pre-emergence, 62 g ai/ha, preemergence, scale 0 (no effect) to 100 (complete control), read-out: Johnsongrass plant response rating): 25%; pest or weed control at 125 g/ha (johnsongrass; Sorghum halepense, pre-emergence, 125 g ai/ha, preemergence, scale 0 (no effect) to 100 (complete control), read-out: Johnsongrass plant response rating): 90%; pest or weed control at 250 g/ha (johnsongrass; Sorghum halepense, pre-emergence, 250 g ai/ha, preemergence, scale 0 (no effect) to 100 (complete control), read-out: Johnsongrass plant response rating): 100%; pest or weed control at 31 g/ha (johnsongrass; Sorghum halepense, pre-emergence, Preemergence, 31 g ai/ha, scale 0 to 100, 0 no effect, 100 complete control, read-out: Plant response rating, Johnsongrass): 15%; pest or weed control at 62 g/ha (waterhemp; Amaranthus tuberculatus, pre-emergence, 62 g ai/ha, preemergence, scale 0 (no effect) to 100 (complete control), read-out: Waterhemp plant response rating): 100%; pest or weed control at 125 g/ha (waterhemp; Amaranthus tuberculatus, pre-emergence, 125 g ai/ha, preemergence, scale 0 (no effect) to 100 (complete control), read-out: Waterhemp plant response rating): 100%; pest or weed control at 250 g/ha (waterhemp; Amaranthus tuberculatus, pre-emergence, 250 g ai/ha, preemergence, scale 0 (no effect) to 100 (complete control), read-out: Waterhemp plant response rating): 100%; pest or weed control at 31 g/ha (waterhemp; Amaranthus tuberculatus, pre-emergence, Preemergence, 31 g ai/ha, scale 0 to 100, 0 no effect, 100 complete control, read-out: Plant response rating, Waterhemp): 100%; pest or weed control at 125 g/ha (Italian ryegrass; Lolium multiflorum, post-emergence, 125 g ai/ha, postemergence, read-out: Plant response rating (0 to 100), Ryegrass, Italian): 10%; pest or weed control at 250 g/ha (Italian ryegrass; Lolium multiflorum, post-emergence, 250 g ai/ha, postemergence, read-out: Plant response rating (0 to 100), Ryegrass, Italian): 10%; pest or weed control at 31 g/ha (Italian ryegrass; Lolium multiflorum, post-emergence, Postemergence, 31 g ai/ha, scale 0 to 100 (0 no effect, 100 complete control), 13 to 15 days, read-out: Plant response rating, Ryegrass, Italian): 0%; pest or weed control at 62 g/ha (Italian ryegrass; Lolium multiflorum, post-emergence, Postemergence, 62 g ai/ha, scale 0 to 100 (0 no effect, 100 complete control), read-out: Plant response rating, Ryegrass, Italian): 5%; plant injury at 125 g/ha (corn [2]; Zea mays, post-emergence, 125 g ai/ha, postemergence, read-out: Plant response rating (0 to 100), Corn): 10%; plant injury at 250 g/ha (corn [2]; Zea mays, post-emergence, 250 g ai/ha, postemergence, read-out: Plant response rating (0 to 100), Corn): 10%; Corn plant response rating (crop injury, 0 = no effect, 100 = complete kill) at 31 g/ha (corn [2]; Zea mays, post-emergence, Postemergence, 31 g ai/ha, scale 0 to 100 (0 no effect, 100 complete control), 13 to 15 days): 5%; Corn plant response rating (crop injury, 0 = no effect, 100 = complete kill) at 62 g/ha (corn [2]; Zea mays, post-emergence, Postemergence, 62 g ai/ha, scale 0 to 100 (0 no effect, 100 complete control)): 10%

`Cc1cnc(Oc2cccc(C#N)c2-n2cc(C(F)(F)F)cn2)nc1` [Compound 180] was tested. Which “Pigweed plant response rating (0 to 100 scale)” value (pigweed; 125 g ai/ha) did it give?
The value was 100.

What about the “Pigweed plant response rating” value (pigweed; [3]) of the same compound?
The value was 100.

What about the “Corn plant response rating (0 to 100 scale)” value (corn [1]; 125 g ai/ha) of the same compound?
Its value is 60.

And the “Corn plant response rating” value (corn [1]; [3])?
Its value is 90.

And the “Crabgrass, Large plant response rating” value (large (Lg) crabgrass; [4])?
The value was 90.

What about the “Plant response rating, Crabgrass, Large” value (large (Lg) crabgrass; [3]) of the same compound?
The value was 90.

And the “Foxtail, Giant plant response rating” value (giant foxtail; [4])?
Its value is 90.

And the “Plant response rating, Foxtail, Giant” value (giant foxtail; [3])?
Its value is 90.

And the “Wheat plant response rating” value (wheat; [4])?
The value was 40.

And the “Plant response rating, Wheat” value (wheat; [3])?
Its value is 80.

And the “Plant response rating, Ducksalad” value (Heteranthera limosa)?
The value was 80.

And the “Wheat plant response rating” value (wheat, winter; [5])?
The value was 0.

What about the “Wheat plant response rating” value (wheat, winter; [6]) of the same compound?
The value was 50.

And the “Plant response rating, Wheat” value (wheat, winter; [7])?
Its value is 5.

What about the “Galium plant response rating” value (galium; [5]) of the same compound?
Its value is 80.

What about the “Galium plant response rating” value (galium; [6]) of the same compound?
The value was 100.

And the “Plant response rating, Galium” value (galium; [7])?
Its value is 100.

And the “Johnsongrass plant response rating” value (johnsongrass; [5])?
Its value is 0.

And the “Johnsongrass plant response rating” value (johnsongrass; [6])?
Its value is 98.

And the “Plant response rating, Johnsongrass” value (johnsongrass; [7])?
The value was 75.

And the “Waterhemp plant response rating” value (waterhemp; [5])?
The value was 90.

And the “Waterhemp plant response rating” value (waterhemp; [6])?
Its value is 100.

And the “Plant response rating, Waterhemp” value (waterhemp; [7])?
Its value is 100.

What about the “Plant response rating (0 to 100), Ryegrass, Italian” value (Italian ryegrass; [8]) of the same compound?
The value was 0.

And the “Ryegrass, Italian plant response rating” value (Italian ryegrass; [9])?
The value was 0.

What about the “Plant response rating, Ryegrass, Italian” value (Italian ryegrass; [10]) of the same compound?
The value was 10.

And the “Plant response rating, Ryegrass, Italian” value (Italian ryegrass; [11])?
Its value is 5.

What about the “Plant response rating (0 to 100), Corn” value (corn [2]; [8]) of the same compound?
Its value is 0.

And the “Corn plant response rating” value (corn [2]; [9])?
The value was 5.

What about the “Plant response rating, Corn” value (corn [2]; [10]) of the same compound?
The value was 10.

What about the “Plant response rating, Corn” value (corn [2]; [11]) of the same compound?
Its value is 5.
